Assay [1] has as its target T1, chABCD1 (chimeric ABCD1) (Homo sapiens, UniProt P33897).
T1 construct: single polypeptide: N-terminal FLAG tag, PMP-4 residues 1-65 replacing human ABCD1 residues 1-63, then human ABCD1 64-745; HEK293F; homodimer; LMNG/CHS for assays, digitonin for cryo-EM; with PMP-4 (peroxisomal membrane protein related, ABCD1 homolog, Caenorhabditis elegans; N-terminal segment fused to the target chain)
T1 sequence (P33897 64-745): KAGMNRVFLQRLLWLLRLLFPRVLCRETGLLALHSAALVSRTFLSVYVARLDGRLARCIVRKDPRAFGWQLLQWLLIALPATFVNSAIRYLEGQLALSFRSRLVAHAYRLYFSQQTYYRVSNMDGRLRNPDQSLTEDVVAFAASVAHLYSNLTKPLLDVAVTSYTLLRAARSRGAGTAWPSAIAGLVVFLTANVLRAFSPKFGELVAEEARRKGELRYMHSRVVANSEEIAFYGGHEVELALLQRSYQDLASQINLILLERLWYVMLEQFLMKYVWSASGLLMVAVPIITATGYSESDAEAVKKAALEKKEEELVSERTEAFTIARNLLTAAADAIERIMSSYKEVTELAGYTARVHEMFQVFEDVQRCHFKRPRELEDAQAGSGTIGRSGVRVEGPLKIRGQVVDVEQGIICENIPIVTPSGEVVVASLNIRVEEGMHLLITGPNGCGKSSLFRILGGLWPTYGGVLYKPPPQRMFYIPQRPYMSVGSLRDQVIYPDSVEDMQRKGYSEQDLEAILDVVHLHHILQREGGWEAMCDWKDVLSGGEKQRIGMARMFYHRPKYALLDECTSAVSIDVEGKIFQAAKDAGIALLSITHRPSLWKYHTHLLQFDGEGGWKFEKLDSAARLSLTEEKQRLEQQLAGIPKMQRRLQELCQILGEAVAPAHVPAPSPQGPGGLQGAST
Briefly: substrate-stimulated ATPase assay (colorimetric Pi release). It counts as biochemical.

For assay [2], the target named is T2, chABCD1 (chimeric ABCD1) (Homo sapiens, UniProt P33897, K336A).
T2 construct: single polypeptide: N-terminal FLAG tag, PMP-4 residues 1-65 replacing human ABCD1 residues 1-63, then human ABCD1 64-745; HEK293F; homodimer; LMNG/CHS for assays, digitonin for cryo-EM; with PMP-4 (peroxisomal membrane protein related, ABCD1 homolog, Caenorhabditis elegans; N-terminal segment fused to the target chain)
T2 sequence (P33897 64-745 K336A): T1 sequence (P33897 64-745) with K273A
The assay is described as above. It counts as biochemical. The note with it: 5 μM C22:0-CoA, 2 mM ATP, 2 mM MgCl2, LMNG + CHS, pH 7.5, 37 °C.

Molecules are shown by their SMILES. Positions count from the first letter of the chain named.

What is called EC50 is the midpoint of the concentration-response curve. A high value points to lower potency in that assay. The compound `CCCCCCCCCCCCCCCCCCCCCC(=O)SCCNC(=O)CCNC(=O)[C@H](O)C(C)(C)COP(=O)(O)OP(=O)(O)OC[C@H]1O[C@@H](n2cnc3c(N)ncnc32)[C@H](O)[C@@H]1OP(=O)(O)O` [C22:0-CoA] yielded an EC50 on chABCD1 (chimeric ABCD1) [1] of roughly 2000 nM. Besides, the “relative ATPase activity” value at chABCD1 (chimeric ABCD1) [2] is on record as “displayed significantly decreased substrate-simulated ATPase activity, compared to the wild-type”.

For the origin of these results see paper PMC9177597, “Structural basis of substrate recognition and translocation by human very long-chain fatty acid transporter ABCD1” (Nature Communications, 2022).
